Laboratory results reported in paper PMC10622577, “Structural basis for stabilisation of the RAD51 nucleoprotein filament by BRCA2” (Nature Communications, 2023).

Assays:
[1] = molecular target: T1, RAD51 (Homo sapiens, UniProt Q06609); experiment: SPR Kd estimation of TR2 for wild-type and mutant RAD51; type: binding; conditions: saturation not achieved, would need >30 uM TR2
T1 construct: made in house; host or cells: E. coli BL21(DE3)Rosetta2
T1 sequence (Q06609 2-339): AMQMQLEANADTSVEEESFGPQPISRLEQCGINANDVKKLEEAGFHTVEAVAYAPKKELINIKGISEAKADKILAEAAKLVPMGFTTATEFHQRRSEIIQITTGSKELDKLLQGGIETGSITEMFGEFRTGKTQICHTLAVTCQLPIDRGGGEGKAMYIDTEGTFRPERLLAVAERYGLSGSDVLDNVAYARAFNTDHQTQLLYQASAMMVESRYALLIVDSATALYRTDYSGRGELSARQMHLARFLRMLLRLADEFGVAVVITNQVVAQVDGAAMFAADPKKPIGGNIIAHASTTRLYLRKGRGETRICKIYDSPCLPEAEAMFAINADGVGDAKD
Method: (§1) All binding experiments were performed in CMA buffer: 25 mM HEPES pH 7.4, 100 mM NaCl, 2 mM DTT, 2 mM ATP, 5 mM CaCl2, 5 mM MgCl2. 1 μM RAD51 (wild-type, D184A or D184A, D187A mutant proteins) was injected for 120 seconds followed by buffer for 120 seconds at a flow rate of 10 μl/min. TR2 or BRC4 peptides were then injected in a concentration titration series of 0.1, 0.25, 0.5, 0.75, 1, 2, 3, 5, 7.5, 10 and 15 μM for 120 seconds at a flow rate of […] followed by a dissociation time of 240 seconds. After each injection of BRCA2 peptide, the sensor chip was regenerated with buffer comprising of CMA buffer with 1 M NaCl for 120 seconds at a flow rate of 100 μl/min. All experiments were performed in triplicate.
(§2) For the BRCA2 TR2 titration series, blank-subtracted sensorgrams were used to extract the maximum response accumulated after each TR2 injection. TR2 response accumulation was corrected to account for differences in RAD51 filament formation between runs, by multiplying the maximum response by a scale factor calculated as the ratio between mean RAD51 filament accumulation on each DNA substrate and the mean RAD51 accumulated for each mutant for each triplicate. […]
(§3) consequently the need to inject the TR2 peptide at high concentrations (>30 uM), which would change sample viscosity and affect the refractive index for detection. The Kd values that we obtained based on the measured […]

[2] = molecular target: RAD51; experiment: as above; type: binding, human; conditions: no binding saturation, large confidence intervals, statistically unreliable, no numbers given
Method: as §1, §2, §3

## DDQKNCKKRRALDFLSRLPLPPPVSPICTFVSPAAQKAFQPPRSCGTKY [TR2, BRCA2 TR2 peptide spanning amino acids 3260 to 3308]
[1]
  affinity of TR2 for RAD51: relatively low affinity
[2]
  Kd trend, wild-type versus mutant RAD51: KdwtRAD51 < KdmutRAD51
